Assay results: patent US6218406A, “Farnesyl transferase inhibitors, their preparation, the pharmaceutical compositions which contain them and their use in the preparation of medicaments” (Aventis Pharma S.A., priority 1996, dated 2001)
Read-outs that look alike come from different tables or passages of the source.

Molecular target: farnesyl transferase (Homo sapiens, UniProt P49354+P49356)
Assay: Farnesyl transferase inhibition, [3H]-farnesylation of biotinylated K-ras C-terminal peptide (SPA assay)
Assay type: biochemical
Settings: 60 min at 37° C., mean of two IC50 values
[1] = K-Ras substrate, read-out: In vitro inhibitory activity (K-Ras) IC50

SMILES | IC50 [1] [nM] | IC50 (In vitro inhibitory activity (K-Ras) IC50, K-Ras substrate) [nM]
C=C(C(=O)N1C[C@H]2[C@@]3(c4ccc(C)cc4)CC[C@H](c4ccccc43)[C@@]2(C(=O)NNc2ccccc2)C1)c1ccccc1OC (relative stereo) [Example 23, (3aRS,4SR,9SR,9aRS)-4,9-ethano-2-[2-(2-methoxyphenyl)propenoyl]-9-(4-methylphenyl)-2,3,3a,4,9,9a-hexahydro-1H-benzo[f]isoindole-3a-N'-phenylcarbohydrazide] | 277 | –
C=C(C(=O)N1C[C@H]2[C@@]3(c4ccc(C)cc4)CC[C@H](c4ccccc43)[C@@]2(C(=O)NN2CCCCC2)C1)c1ccccc1OC (relative stereo) [Example 24, (3aRS,4SR,9SR,9aRS)-4,9-ethano-2-[2-(2-methoxyphenyl)propenoyl]-9-(4-methylphenyl)-2,3,3a,4,9,9a-hexahydro-1H-benzo[f]isoindole-3a-N',N'-pentamethylenecarbohydrazide] | 84 | –
C=C(C(=O)N1C[C@H]2[C@@]3(c4ccc(OC)cc4)CC[C@H](c4ccccc43)[C@@]2(C(=O)O)C1)c1ccccc1OC (single isomer, unassigned) [Example 75, Dextrorotatory Enantiomer of (3aRS,4SR,9SR,9aRS)-4,9-ethano-9-(4-methoxyphenyl)-2-[2-(2-methoxyphenyl)propenoyl]-2,3,3a,4,9,9a-hexahydro-1H-benzo[f]isoindole-3a-carboxylic Acid] | 8 | –
C=C(C(=O)N1C[C@H]2[C@@]3(c4ccc(C)cc4)CC[C@H](c4ccccc43)[C@@]2(C(=O)NCc2cccnc2)C1)c1ccccc1OC (single isomer, unassigned) [Example 18, Dextrorotatory Enantiomer of (3aRS,4SR,9SR,9aRS)-4,9-ethano-2-[2-(2-methoxyphenyl)propenoyl]-9-(4-methylphenyl)-2,3,3a,4,9,9a-hexahydro-1H-benzo[f]isoindole-3a-N-(3-pyridylmethyl)carboxamide] | 50 | –
C=C(C(=O)N1C[C@H]2[C@@]3(c4ccc(C)cc4)CC[C@H](c4ccccc43)[C@@]2(C(=O)NCc2cccnc2)C1)c1ccccc1OC (single isomer, unassigned) [Example 19, Levorotatory Enantiomer of (3aRS,4SR,9SR,9aRS)-4,9-ethano-2-[2-(2-methoxyphenyl)propenoyl]-9-(4-methylphenyl)-2,3,3a,4,9,9a-hexahydro-1H-benzo[f]isoindole-3a-N-(3-pyridylmethyl)carboxamide] | 181 | –
C=C(C(=O)N1C[C@@H]2[C@]3(c4ccc(C)cc4)CC[C@@H](c4ccccc43)[C@]2(C(=O)NOCc2ccccc2)C1)c1ccccc1OC (racemic) [Example 14, benzyl (3aRS,4SR,9SR,9aRS)-4,9-ethano-2-[2-(2-methoxyphenyl)propenoyl]-9-(4-methylphenyl)-2,3,3a,4,9,9a-hexahydro-1H-benzo[f]isoindole-3a-hydroxamate] | 210 | –
C=C(C(=O)N1C[C@@H]2[C@]3(c4cccc(C#N)c4)CC[C@@H](c4ccccc43)[C@]2(C(=O)OC)C1)c1ccccc1OC (racemic) [Example 96, methyl (3aRS,4SR,9SR,9aRS)-9-(3-cyanophenyl)-4,9-ethano-2-[2-(2-methoxyphenyl)propenoyl]-2,3,3a,4,9,9a-hexahydro-1H-benzo[f]isoindole-3a-carboxylate] | 955 | –
C=C(C(=O)N1C[C@H]2[C@@]3(c4ccc5c(c4)OCCO5)CC[C@H](c4ccccc43)[C@@]2(C(=O)NCc2cccnc2)C1)c1ccccc1OC (relative stereo) [Example 33, (3aRS,4SR,9SR,9aRS)-9-(2,3-dihydro-1,4-benzodioxin-6-yl)-4,9-ethano-2-[2-(2-methoxyphenyl)propenoyl]-2,3,3a,4,9,9a-hexahydro-1H-benzo[f]isoindole-3a-N-(3-pyridylmethyl)carboxamide] | 242 | –
C=C(C(=O)N1C[C@@H]2[C@]3(c4cccc(F)c4)CC[C@@H](c4ccccc43)[C@]2(C(=O)O)C1)c1ccccc1OC (racemic) [Example 86, (3aRS,4SR,9SR,9aRS)-4,9-ethano-9-(3-fluorophenyl)-2-[2-(2-methoxyphenyl)propenoyl]-2,3,3a,4,9,9a-hexahydro-1H-benzo[f]isoindole-3a-carboxylic Acid] | 5 | –
C=C(C(=O)N1C[C@H]2[C@@]3(c4ccc(C)cc4)CC[C@H](c4ccccc43)[C@@]2(C(=O)NCc2ccc[n+]([O-])c2)C1)c1ccccc1OC (relative stereo) [Example 26, (3aRS,4SR,9SR,9aRS)-4,9-ethano-2-[2-(2-methoxyphenyl)-propenoyl]-9-(4-methylphenyl)-2,3,3a,4,9,9a-hexahydro-1H-benzo[f]isoindole-3a-N-(N-oxo-3-pyridyl)methylcarboxamide] | 145 | –
C=C(C(=O)N1C[C@@H]2[C@]3(c4ccc(C)cc4)CC[C@@H](c4ccccc43)[C@]2(C(=O)OC)C1)c1ccccc1OC (racemic) [Example 1, methyl (3aRS,4SR,9SR,9aRS)-4,9-ethano-2-[2-(2-methoxyphenyl)propenoyl]-9-(4-methylphenyl)-2,3,3a,4,9,9a-hexahydro-1H-benzo[f]isoindole-3a-carboxylate] | 305 | –
COC(=O)[C@@]12CN(C(=O)Cc3ccccc3OC)C[C@@H]1[C@]1(c3ccc(C)c(C)c3)CC[C@H]2c2ccccc21 (racemic) [Example 11, Methyl (3aRS,4SR,9SR,9aRS)-9-(3,4-dimethylphenyl)-4,9-ethano-2-[(2-methoxyphenyl)acetyl]-2,3,3a,4,9,9a-hexahydro-1H-benzo[f]isoindole-3a-carboxylate] | 345 | –
C=C(C(=O)N1C[C@@H]2[C@]3(c4ccc(C(F)(F)F)cc4)CC[C@@H](c4ccccc43)[C@]2(C(=O)NCc2cccnc2)C1)c1ccccc1OC (relative stereo) [Example 42, (3aRS,4SR,9SR,9aRS)-4,9-ethano-2-[2-(2-methoxyphenyl)propenoyl]-9-[4-(trifluoromethyl)phenyl]-2,3,3a,4,9,9a-hexahydro-1H-benzo[f]isoindole-3a-N-(3-pyridylmethyl)carboxamide] | 83 | –
C=C(C(=O)N1C[C@@H]2[C@]3(c4ccc(C#N)cc4)CC[C@@H](c4ccccc43)[C@]2(C(=O)O)C1)c1ccccc1OC (racemic) [Example 95, (3aRS,4SR,9SR,9aRS)-9-(4-cyanophenyl)-4,9-ethano-2-[2-(2-methoxyphenyl)propenoyl]-2,3,3a,4,9,9a-hexahydro-1H-benzo[f]isoindole-3a-carboxylic Acid] | 177 | –
C=C(C(=O)N1C[C@H]2[C@@]3(c4ccc(C)cc4)CC[C@H](c4ccccc43)[C@@]2(C(=O)NN(C)C)C1)c1ccccc1OC (relative stereo) [Example 22, (3aRS,4SR,9SR,9aRS)-4,9-ethano-2-[2-(2-methoxyphenyl)propenoyl]-9-(4-methylphenyl)-2,3,3a,4,9,9a-hexahydro-1H-benzo[f]isoindole-3a-N',N'-dimethylcarbohydrazide] | 131 | –
C=C(C(=O)N1C[C@H]2[C@@]3(c4ccc(C)cc4)CC[C@H](c4ccccc43)[C@@]2(C(=O)O)C1)c1ccccc1OC (single isomer, unassigned) [Example 4, laevorotatory enantiomer of (3aRS,4SR,9RS,9aRS)-4,9-ethano-2-[2-(2-methoxyphenyl)propenoyl]-9-(4-methylphenyl)-2,3,3a,4,9,9a-hexahydro-1H-benzo[f]isoindole-3a-carboxylic acid] | 1800 | –
C=C(C(=O)N1C[C@@H]2[C@]3(c4ccc5c(c4)OCCO5)CC[C@@H](c4ccccc43)[C@]2(C(=O)O)C1)c1ccccc1OC (racemic) [Example 32, (3aRS,4SR,9SR,9aRS)-9-(2,3-dihydro-1,4-benzodioxin-6-yl)-4,9-ethano-2-[2-(2-methoxyphenyl)-propenoyl]-2,3,3a,4,9,9a-hexahydro-1H-benzo[f]isoindole-3a-carboxylic Acid] | 106 | –
C=C(C(=O)N1C[C@@H]2[C@]3(c4ccc(Br)cc4)CC[C@@H](c4ccccc43)[C@]2(C(=O)OC)C1)c1ccccc1OC (racemic) [Example 49, methyl (3aRS,4SR,9SR,9aRS)-9-(4-bromophenyl)-4,9-ethano-2-[2-(2-methoxyphenyl)-propenoyl]-2,3,3a,4,9,9a-hexahydro-1H-benzo[f]isoindole-3a-carboxylate] | 229 | –
C=C(C(=O)N1C[C@@H]2[C@]3(c4ccc(Cl)cc4)CC[C@@H](c4ccccc43)[C@]2(C(=O)O)C1)c1ccccc1OC (racemic) [Example 53, (3aRS,4SR,9SR,9aRS)-9-(4-chlorophenyl)-4,9-ethano-2-[2-(2-methoxyphenyl)propenoyl]-2,3,3a,4,9,9a-hexahydro-1H-benzo[f]isoindole-3a-carboxylic Acid] | 20 | –
C=C(C(=O)N1C[C@@H]2[C@]3(c4ccccc4C)CC[C@@H](c4ccccc43)[C@]2(C(=O)O)C1)c1ccccc1OC (racemic) [Example 38, (3aRS,4SR,9SR,9aRS)-4,9-ethano-2-[2-(2-methoxyphenyl)propenoyl]-9-(2-methylphenyl)-2,3,3a,4,9,9a-hexahydro-1H-benzo[f]isoindole-3a-carboxylic Acid] | 99 | –
COc1ccccc1CC(=O)N1C[C@H]2[C@@]3(c4cccc(C)c4)CC[C@H](c4ccccc43)[C@@]2(C(=O)O)C1 (relative stereo) [Example 9, (3aRS,4SR,9SR,9aRS)-4,9-ethano-2-[(2-methoxyphenyl)acetyl]-9-(3-methylphenyl)-2,3,3a,4,9,9a-hexahydro-1H-benzo[f]isoindole-3a-carboxylic Acid] | – | 55
C=C(C(=O)N1C[C@H]2[C@@]3(c4ccc(C)cc4)CC[C@H](c4ccccc43)[C@@]2(C(=O)NNc2ccc(OC)cc2)C1)c1ccccc1OC (relative stereo) [Example 27, (3aRS,4SR,9SR,9aRS)-4,9-ethano-2-[2-(2-methoxyphenyl)propenoyl]-9-(4-methylphenyl)-2,3,3a,4,9,9a-hexahydro-1H-benzo[f]isoindole-3a-N'-(4-methoxyphenyl)carbohydrazide] | 9 | –
